Experimental data reported in paper PMC6268373, “Systematic Study of the Physicochemical Properties of a Homologous Series of Aminobisphosphonates” (Molecules, 2012).
Converted amounts (≈) assume the structure as drawn. Where two headings read alike, the source gives them in different places. One block for each compound: values may come before it.

What was measured:
[1] = Effect of temperature on aqueous solubility; details: water, thermodynamic from solid
Description: (§1) A Jasco V-530 UV/Vis spectrophotometer was used for phosphorus determination at 880 nm wavelength. Filtered liquid samples were diluted to the appropriate volume with Milli-Q water and were digested with the persulphate oxidation technique in acidic medium at elevated temperature to convert aminobisphosponates to orthophosphate. In an acidic medium, ammonium molybdate and antimony potassium tartrate react with orthophosphate to form a phosphomolybdic acid that is reduced to intensively colored molybdenum blue by ascorbic acid [30].
(§2) The mixture containing an excess of the studied compound was first agitated for predetermined time with magnetic stirrer and before taking the sample mixture was allowed to stand for 24 h without stirring. The sample (about 5 mL) was taken from liquid above the solids, pH was measured and the sample was filtered through 0.2 µm membrane filter to remove any possible insoluble particles. The phosphorus concentration in the filtered sample solution was determined by using the spectrophotometric method described above.

[2] = Aqueous solubility of saturated solution at 21 °C (phosphorus determination by molybdenum blue spectrophotometry); details: 21 °C; for pH of saturated solution: saturated aqueous solution, agitation time 30 min
Description: as §1, §2

[3] = Protonation constants by (traditional) potentiometric titration (TPT), SUPERQUAD; details: 0.1 M NaNO3, 25 °C; for pKa: log K, TPT; for logβx ± 3σ, x = 1 (H3L−) / logβx ± 3σ, x = 2 (H4L) / logβx ± 3σ, x = 3 (H5L+) / logβx ± 3σ, x = −1 (HL3−) / logβx ± 3σ, x = −2 (L4−): overall protonation, zero level H2L2−
Source text: Results were obtained from […] as overall stability constants (log β values); following the chosen zero level H2L^2−. This zero level H2L^2− was chosen in the calculations to avoid any accumulation of errors of protonation constants at different pH ranges. The log β results for reactions (4) and (5) obtained in the final refinements are listed in Table S3 (see Supporting Information) with error limits (±3σ), number of points/number of titrations and χ^2/Σ statistics.
The details of the experiments using (traditional) potentiometric titration are presented in the Supporting Information. The results of the determination by Sirius instrument are shown in the Supporting Information. Potentiometric titrations of the compounds were performed with the PCA200 apparatus (Sirius Analytical Instruments Ltd, Forest Row, East Sussex, UK).
Table S2. The effect of pH on aqueous solubility (mg/L) of aminoalkylbis(phosphonates) […]
Solubility (g/L) of Compound
Determination of the Protonation Constants Using (traditional) Potentiometric Titration. Reagents:
Aqueous 0.1 M NaOH was prepared from Titrisol ampoules (Merck) and 0.1 M HNO3 from Convol ampoules (BDH). The background solution was prepared by dissolving NaNO3 in deionised water.
The NaNO3 and NaCl used in reference electrode were p.a. grade (Merck). The water used in the dilutions and titration solutions was purified with Milli-RO and Milli-Q water purification systems […]
Potentiometric measurements: The protonation equilibria was studied in aqueous 0.1 M NaNO3 at 25.0 ± 0.1 °C through a series of potentiometric EMF titrations carried out with a Schott-Geräte GmbH […]
The cell arrangement for the measurement of the hydrogen ion concentration [H+] was as follows:
−RE […] equilibrium solution […] GE+ (1) where GE denotes a glass electrode (Schott N2680), and RE is Hg, Hg2Cl2 […] 0.01 M NaCl, 0.09 M NaNO3. Expression (2) is valid assuming that the activity coefficients are constant.
The cell parameter E0 and the liquid junction coefficient jH, valid in acidic solutions, were determined for each titration by adding a known amount of HNO3 to the background electrolyte. The value of the liquid junction coefficient jOH, valid in basic solutions, was determined periodically. Only stable EMF readings were used in the calculations.
During the measurements of the protonation equilibria, aqueous 0.1 M NaOH or 0.1 M HNO3 was […]
Four to eight independent titrations were carried out for each ligand. The number of data points used in […]
Data treatment: Protonation and deprotonation of the ligands were controlled by addition of HNO3 or NaOH. The curves of ZH versus pH were drawn to visualize the experimental data sets. ZH describes the average number of H+ ions added or liberated per mole of ligand and is given by the relationship […]
where CH denotes the total concentration of protons calculated over the zero level H2L2−.
In the evaluation of the equilibrium constants, the following two-component equilibria were utilized:
H2L2− ⇋ H2-xL(2+x)– + xH+ , x = 1–2; β–x (4) xH+ + H2L2− ⇋ Hx+2Lx–2, x = 1–3; βx (5)
Mathematical analysis of the systems involves a search for protonation models and equilibrium constants that best describe the experimental data. The calculations were carried out with the computer […]
1200). The sample standard deviation Σ and the χ2 statistics used as criteria in the selection of the models were those provided by the program. As a means to improve the confidence level, the error limits for log β values determined in this study are reported as three times the standard deviation estimated by the program.
Figure S2. ZH vs. pH for protonation of compounds (a) 1; (b) 2; (c) 3; (d) 4 and (e) 5.

[4] = pKa determination with Sirius instrument (PCA200)
[5] = cited from earlier work; for logK, pKa3: H2L2− + H+ ⇋ H3L−; for logK, pKa2: H3L− + H+ ⇋ H4L; for logK, pKa4: HL3− + H+ ⇋ H2L2−
[6] = Effect of pH on aqueous solubility; details: 21 °C, thermodynamic from solid
Description: as §1, §2

[7] = Thermal analysis (TG/DTA and TGA 7); assay type: physicochemical; details: for Td / Td (decomposition onset): air; for Td: 5 °C/min; for Temp. range of 1st cleavage: lower limit taken at 0.5 wt-%; for Td (decomposition onset): average from both instruments, heating rate 5 °C/min
Description: Thermal decomposition paths with evaluation of crystal water content were obtained parallel with two instruments; Perkin Elmer STA 6000 thermogravimetric TG/DTA and Perkin Elmer TGA 7 analyzers (Perkin Elmer, Massachusetts, USA). Measurements were carried out in an open platinum crucible (the higher 5 mm crucible was used in TG/DTA and a shallower 2 mm crucible in TGA 7) under air atmosphere (flow rate of 45 mL/min) with a heating rate of 5 °C/min over the temperature range of 25−700 °C. The temperature calibration of STA 6000 was made using melting points of indium (156.60 °C) and zinc (419.5 °C) standards. For TGA 7 magnetic Curie-point calibration technique (Alumel, Ni, Perkalloy, Fe) was used. The weight balance of both instruments was calibrated by measuring a standard weight of 50 mg at room temperature. The sample weights used in the measurements were about 4–8 mg, and for each bisphosphonate, it was attempted to keep the same on both instruments. The melting/dehydration/decomposition behavior of the compounds was also visually monitored using a Stuart Scientific SMP3 melting point apparatus.

SMILES: NCCCCCC(O)(P(=O)(O)O)P(=O)(O)O [Compound 4, (6-Amino-1-hydroxyhexylidene)bisphosphonic acid, reference compound]
- solubility at 24 h ([1]; 4 °C): 4470 µg/mL (≈ 16.1 mM)
- solubility at 24 h ([1]; 7.6 °C): 4600 µg/mL (≈ 16.6 mM)
- solubility at 24 h ([1]; 21 °C): 5170 µg/mL (≈ 18.7 mM)
- solubility at 24 h ([1]; 30 °C): 5770 µg/mL (≈ 20.8 mM)
- solubility at 24 h ([1]; 40 °C): 7620 µg/mL (≈ 27.5 mM)
- solubility at 24 h ([1]; 50 °C): 9550 µg/mL (≈ 34.5 mM)
- solubility at 30 min ([2]; water, thermodynamic from solid): 3420 µg/mL (≈ 12.3 mM)
- pH of saturated solution [2]: 2.26
- pKa ([3]; pKa1 (H4L + H+ ⇋ H5L+), approximate values): 0.94
- pKa ([3]; pKa2 (H3L− + H+ ⇋ H4L)): 2.38
- pKa ([3]; pKa3 (H2L2− + H+ ⇋ H3L−)): 6.62
- pKa ([3]; pKa4 (HL3− + H+ ⇋ H2L2−)): 10.9
- pKa ([3]; pKa5 (L4− + H+ ⇋ HL3−)): 11.9
- logβx ± 3σ, x = 1 (H3L−) [3]: 6.62 ± 0.02
- logβx ± 3σ, x = 2 (H4L) [3]: 9.00 ± 0.03
- logβx ± 3σ, x = 3 (H5L+) [3]: 9.94 ± 0.12
- logβx ± 3σ, x = −1 (HL3−) [3]: −10.86 ± 0.02
- logβx ± 3σ, x = −2 (L4−) [3]: −22.80 ± 0.02
- pKa 2 (Sirius) [4]: 2.99
- pKa 3 (Sirius) [4]: 6.36
- pKa 4 (Sirius) [4]: 6.82
- logK, pKa3 ([5]; ref 4): 6.50
- logK, pKa3 ([5]; ref 13): 5.49
- logK, pKa2 ([5]; ref 4): 2.45
- logK, pKa2 ([5]; ref 13): 2.90
- logK, pKa4 ([5]; ref 4): 10.66
- logK, pKa4 ([5]; ref 13): 8.63
- logK, pKa5 ([5]; L4− + H+ ⇋ HL3−, ref 13): 10.9
- solubility at 30 min ([6]; pH 0, aqueous buffer): 6340 µg/mL (≈ 22.9 mM)
- solubility at 30 min ([6]; pH 1, aqueous buffer): 3840 µg/mL (≈ 13.9 mM)
- solubility at 30 min ([6]; pH 2, aqueous buffer): 2900 µg/mL (≈ 10.5 mM)
- solubility at 30 min ([6]; pH 3, aqueous buffer): 2970 µg/mL (≈ 10.7 mM)
- solubility at 30 min ([6]; pH 4, aqueous buffer): 3090 µg/mL (≈ 11.1 mM)
- solubility at 30 min ([6]; pH 5, aqueous buffer): 3220 µg/mL (≈ 11.6 mM)
- solubility at 30 min ([6]; pH 6, aqueous buffer): 3390 µg/mL (≈ 12.2 mM)
- solubility at 30 min ([6]; pH 7, aqueous buffer): 3420 µg/mL (≈ 12.3 mM)
- solubility at 30 min ([6]; pH 8, aqueous buffer): 3530 µg/mL (≈ 12.7 mM)
- solubility at 30 min ([6]; pH 9, aqueous buffer): 3080 µg/mL (≈ 11.1 mM)
- solubility at 30 min ([6]; pH 10, aqueous buffer): 3180 µg/mL (≈ 11.5 mM)
- solubility at 30 min ([6]; pH 11, aqueous buffer): 3380 µg/mL (≈ 12.2 mM)
- Onset temperature of first cleavage ([7]; TG/DTA, higher crucible): 208 °C
- Td ([7]; TG/DTA, higher crucible): 208 °C
- Temp. range of 1st cleavage ([7]; TG/DTA, higher crucible): 196–260 °C
- Onset temperature of first cleavage ([7]; TGA 7, shallow crucible): 215 °C
- Td ([7]; TGA 7, shallow crucible): 215 °C
- Temp. range of 1st cleavage ([7]; TGA 7, shallow crucible): 183–251 °C
- Td (decomposition onset) [7]: 212 °C

- pH of saturated solution [2]: 1.94
- logβx ± 3σ, x = 1 (H3L−) [3]: 6.26 ± 0.01
- logβx ± 3σ, x = 2 (H4L) [3]: 8.38 ± 0.02
- logβx ± 3σ, x = 3 (H5L+) [3]: 8.98 ± 0.20
- logβx ± 3σ, x = −1 (HL3−) [3]: −10.69 ± 0.01
- logβx ± 3σ, x = −2 (L4−) [3]: −22.82 ± 0.02
- Onset of 1st cleavage (in parentheses) ([7]; TG/DTA, higher crucible): 222 °C
- Td ([7]; TG/DTA, higher crucible): 222 °C
- Temp. range of 1st cleavage ([7]; TG/DTA, higher crucible): 168–252 °C
- Onset of 1st cleavage (in parentheses) ([7]; TGA 7, shallow crucible): 225 °C
- Td ([7]; TGA 7, shallow crucible): 225 °C
- Temp. range of 1st cleavage ([7]; TGA 7, shallow crucible): 166–253 °C
- Td (decomposition onset) [7]: 224 °C
SMILES: NCCCC(O)(P(=O)(O)O)P(=O)(O)O [Compound 2, (4-amino-1-hydroxybutylidene)bisphosphonic acid, reference compound]
